Experimental data published in ChEMBL document CHEMBL3596159, “Beyond substrate analogues: new inhibitor chemotypes for glycosyltransferases” (Medchemcomm, 2014).
*1 amine or outer side, *2 acyl side, *3 side chain or, on linkers, in order; H or OH if unused. Where a SMILES comes first, the peptide text is derived from it. Bridges are numbered along the chain shown (N, C = ends). [ ]: non-standard residue; d: D form. The star is where a group is joined. Orn(4R-OH,5R-OH) = O=C([C@H](C[C@@H](O)[C@@H](O)N[*:3])N[*:1])[*:2]; Tetradecanoyl(10R,12S-Me2) = CC[C@H](C)C[C@H](C)CCCCCCCCC(=O)*; hTyr(3S-OH,4S-OH) = N[C@H](C(=O)O)[C@H](O)[C@@H](O)c1ccc(O)cc1; Gln(3R-OH) = NC(=O)C[C@@H](O)[C@H](N)C(=O)O; Pro(3S-OH) = O=C(O)[C@H]1NCC[C@@H]1O; Hyp = O=C(O)[C@@H]1C[C@@H](O)CN1

Assays:
[1] = molecular target: T1, Ceramide glucosyltransferase (Homo sapiens) (UniProt Q16739); experiment: Inhibition of glucosylceramide synthase (unknown origin) at 5 uM
T1 sequence (whole entry): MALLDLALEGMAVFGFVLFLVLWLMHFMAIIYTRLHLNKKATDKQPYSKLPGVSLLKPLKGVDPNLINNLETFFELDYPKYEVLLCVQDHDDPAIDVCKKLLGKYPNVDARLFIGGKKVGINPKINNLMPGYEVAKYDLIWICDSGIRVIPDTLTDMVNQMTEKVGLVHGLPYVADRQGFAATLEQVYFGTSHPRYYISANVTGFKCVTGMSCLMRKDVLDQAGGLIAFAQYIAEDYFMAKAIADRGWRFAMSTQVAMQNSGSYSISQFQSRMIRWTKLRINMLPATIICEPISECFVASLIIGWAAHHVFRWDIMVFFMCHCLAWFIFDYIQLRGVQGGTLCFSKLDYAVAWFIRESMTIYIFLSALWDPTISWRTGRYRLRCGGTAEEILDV

[2] = molecular target: T2, UDP-N-acetylglucosamine--peptide N-acetylglucosaminyltransferase 110 kDa subunit (Homo sapiens) (UniProt O15294); experiment: Inhibition of OGT (unknown origin); conditions: concentration not given here
T2 sequence (whole entry): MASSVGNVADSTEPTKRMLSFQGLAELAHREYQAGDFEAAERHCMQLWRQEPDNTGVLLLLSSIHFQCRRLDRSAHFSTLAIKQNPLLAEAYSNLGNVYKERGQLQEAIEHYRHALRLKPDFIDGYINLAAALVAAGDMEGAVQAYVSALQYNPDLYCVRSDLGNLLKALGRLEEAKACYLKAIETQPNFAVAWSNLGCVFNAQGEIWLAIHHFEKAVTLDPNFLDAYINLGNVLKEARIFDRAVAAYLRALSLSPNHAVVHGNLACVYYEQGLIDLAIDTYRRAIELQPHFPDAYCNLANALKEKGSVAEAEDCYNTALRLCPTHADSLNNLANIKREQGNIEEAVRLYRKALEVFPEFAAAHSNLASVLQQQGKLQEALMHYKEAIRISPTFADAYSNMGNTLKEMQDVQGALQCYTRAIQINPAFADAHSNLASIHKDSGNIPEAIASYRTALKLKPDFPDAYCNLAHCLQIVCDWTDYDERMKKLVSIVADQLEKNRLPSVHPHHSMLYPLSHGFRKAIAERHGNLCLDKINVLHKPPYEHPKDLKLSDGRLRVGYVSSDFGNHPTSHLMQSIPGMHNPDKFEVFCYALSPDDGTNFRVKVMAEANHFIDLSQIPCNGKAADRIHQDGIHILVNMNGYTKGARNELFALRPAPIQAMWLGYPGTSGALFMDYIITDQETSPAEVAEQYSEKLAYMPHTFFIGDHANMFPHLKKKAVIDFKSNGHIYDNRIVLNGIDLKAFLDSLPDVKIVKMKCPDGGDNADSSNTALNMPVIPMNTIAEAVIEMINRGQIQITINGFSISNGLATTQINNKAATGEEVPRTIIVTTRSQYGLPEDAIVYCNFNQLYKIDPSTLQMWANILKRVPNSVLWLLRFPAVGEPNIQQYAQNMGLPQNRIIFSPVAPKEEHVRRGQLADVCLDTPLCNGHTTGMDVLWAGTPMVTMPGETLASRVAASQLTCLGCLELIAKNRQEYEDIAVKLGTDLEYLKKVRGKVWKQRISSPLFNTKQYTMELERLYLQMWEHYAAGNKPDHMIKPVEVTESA

[3] = molecular target: T3, Phospho-N-acetylmuramoyl-pentapeptide-transferase/UDP-N-acetylglucosamine--N-acetylmuramyl-(pentapeptide) pyrophosphoryl-undecaprenol N-acetylglucosamine transf (Escherichia coli K-12, UniProt P0A6W3+P17443); experiment: Inhibition of Escherichia coli MraY/MurG; format: protein assay
T3 sequence (P0A6W3 whole entry): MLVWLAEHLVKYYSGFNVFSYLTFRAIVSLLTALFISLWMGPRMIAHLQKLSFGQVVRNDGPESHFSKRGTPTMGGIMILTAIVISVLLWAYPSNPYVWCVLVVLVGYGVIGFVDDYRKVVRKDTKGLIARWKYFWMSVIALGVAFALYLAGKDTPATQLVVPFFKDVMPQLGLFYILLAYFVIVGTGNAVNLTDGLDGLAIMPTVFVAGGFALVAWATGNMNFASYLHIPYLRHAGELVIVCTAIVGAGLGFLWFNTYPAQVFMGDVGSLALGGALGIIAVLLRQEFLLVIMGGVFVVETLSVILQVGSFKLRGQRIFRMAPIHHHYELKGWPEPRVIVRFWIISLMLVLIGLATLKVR
T3 sequence (P17443 whole entry): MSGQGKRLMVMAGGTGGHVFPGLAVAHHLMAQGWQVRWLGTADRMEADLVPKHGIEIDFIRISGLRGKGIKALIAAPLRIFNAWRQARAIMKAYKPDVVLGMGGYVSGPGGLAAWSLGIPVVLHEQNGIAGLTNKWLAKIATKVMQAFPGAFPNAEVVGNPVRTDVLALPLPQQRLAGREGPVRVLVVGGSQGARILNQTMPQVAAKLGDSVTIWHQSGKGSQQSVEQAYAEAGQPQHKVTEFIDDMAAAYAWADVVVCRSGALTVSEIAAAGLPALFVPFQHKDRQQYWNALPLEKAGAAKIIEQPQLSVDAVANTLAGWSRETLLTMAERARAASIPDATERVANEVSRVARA

[4] = Inhibition of candida albicans beta-(1,3)-glucan synthase assessed as decrease in transfer of radiolabelled glucose from UDP-[3H]-glucose onto acceptor
[5] = tested on: Streptococcus mutans; experiment: Inhibition of Streptococcus mutans sucrose-6-glucosyltransferase at 50 uM
[6] = molecular target: T4, UDP-N-acetylglucosamine--N-acetylmuramyl-(pentapeptide) pyrophosphoryl-undecaprenol N-acetylglucosamine transferase (Escherichia coli (strain K12)) (UniProt P17443); experiment: Inhibition of Escherichia coli MurG at 2.5 microg/ml
T4 sequence (whole entry): T3 sequence (P17443 whole entry)

[7] = molecular target: T5, CMP-N-acetylneuraminate-beta-galactosamide-alpha-2,3-sialyltransferase 1 (Homo sapiens, UniProt Q11201); experiment: Inhibition of ST3Gal 1 (unknown origin)
T5 sequence (Q11201 whole entry): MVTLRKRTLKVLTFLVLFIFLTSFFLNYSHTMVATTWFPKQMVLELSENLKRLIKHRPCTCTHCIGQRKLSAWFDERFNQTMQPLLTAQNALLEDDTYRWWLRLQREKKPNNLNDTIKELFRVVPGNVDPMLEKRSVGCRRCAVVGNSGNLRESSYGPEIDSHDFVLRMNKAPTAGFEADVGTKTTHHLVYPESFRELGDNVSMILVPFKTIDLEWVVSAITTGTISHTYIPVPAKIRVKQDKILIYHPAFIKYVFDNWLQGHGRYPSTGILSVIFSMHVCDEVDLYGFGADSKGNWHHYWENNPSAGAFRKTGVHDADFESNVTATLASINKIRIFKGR

[8] = Inhibition of MraY (unknown origin)
[9] = tested on: Trypanosoma brucei; experiment: Inhibition of Trypanosoma brucei DPMS at 1 mM

Compound: CCCCCCCCCCCCC/C=C/[C@@H](O)[C@@H](CN1CCOCC1)NC(=O)CCCCCCCCCCCCCCC
- inhibition [1]: 73%

Compound: O=C(/C=C/c1cccs1)Nc1scc(-c2ccccc2)c1C(=O)O
- inhibition [2]: > 30%

Compound: O=C1OC2(c3cc(I)c(O)cc3Oc3cc(O)c(I)cc32)c2ccccc21
- IC50 [3]: 166 µM

Compound: CCCCCCCCCCCCCCCC(=O)N[C@H](CN1CCCC1)[C@H](O)c1ccccc1
- inhibition [1]: 50%

Compound: CCCCCCCCCC(=O)N[C@H](CN1CCOCC1)[C@H](O)c1ccccc1
- inhibition [1]: 16%

Compound: CC[C@H](C)C[C@H](C)CCCCCCCCC(=O)N[C@H]1C[C@@H](O)[C@@H](O)NC(=O)[C@@H]2[C@@H](O)CCN2C(=O)[C@H]([C@H](O)CC(N)=O)NC(=O)[C@H]([C@H](O)[C@@H](O)c2ccc(O)cc2)NC(=O)[C@@H]2C[C@@H](O)CN2C(=O)[C@H]([C@@H](C)O)NC1=O ({Tetradecanoyl(10R,12S-Me2)}-[Orn(4R-OH,5R-OH)]T[Hyp][hTyr(3S-OH,4S-OH)][Gln(3R-OH)][Pro(3S-OH)]; lactam 1-C)
- IC50 [4]: 0.07 µM

Compound: CCCCCCCC/C(I)=C(/I)CCCCCCCC(=O)OCC(COC(=O)CCCCCCC/C(I)=C(/I)CCCCCCCC)OC(=O)CCCCCCC/C(I)=C(/I)CCCCCCCC
- inhibition [5]: 26.3%

Compound: CCCCCCCCCCCCCCCC(=O)N[C@H](CN1CCOCC1)[C@H](O)c1ccccc1
- inhibition [1]: 32%

Compound: COc1cc(/C=C2\C(=O)N(c3ccc(Cl)c(C(=O)O)c3)N=C2C)cc([N+](=O)[O-])c1O
- inhibition [6]: 54%

Compound: CCCCCCCCCCCCC/C=C/[C@@H](O)[C@H](CN1CCOCC1)NC(=O)CCCCCCCCCCCCCCC
- inhibition [1]: 5%

Compound: COc1cc(/C=C2\C(=O)NC(=O)N(c3ccc(C)cc3)C2=O)cc([N+](=O)[O-])c1O
- inhibition [6]: 72%

Compound: CCCCCCCC/C=C\CCCCCCCC(=O)O
- inhibition [5]: 42.4%

Compound: C[C@H](CCC(=O)O)[C@H]1CC[C@H]2[C@@H]3CC[C@@H]4C[C@H](O)CC[C@]4(C)[C@H]3CC[C@]12C [LITHOCHOLIC ACID]
- IC50 [7]: 21 µM

Compound: NC[C@H]1O[C@@H](O[C@H](c2cn(Cc3ccc(COc4ccc(C(=O)c5ccccc5)cc4)cc3)nn2)[C@H]2O[C@@H](n3ccc(=O)[nH]c3=O)[C@H](O)[C@@H]2O)[C@H](O)[C@@H]1O
- IC50 [8]: 50 µM

Compound: NC[C@H]1O[C@@H](O[C@H](c2cn(CCCCCOc3ccc(C(=O)c4ccccc4)cc3)nn2)[C@H]2O[C@@H](n3ccc(=O)[nH]c3=O)[C@H](O)[C@@H]2O)[C@H](O)[C@@H]1O
- IC50 [8]: 100 µM

Compound: NC[C@H]1O[C@@H](O[C@H](c2cn(CCCCCCCCCCOc3ccc(C(=O)c4ccccc4)cc3)nn2)[C@H]2O[C@@H](n3ccc(=O)[nH]c3=O)[C@H](O)[C@@H]2O)[C@H](O)[C@@H]1O
- IC50 [8]: 125 µM

Compound: CCCCCCCCCCCCC/C=C/[C@H](O)[C@@H](CN1CCOCC1)NC(=O)CCCCCCCCCCCCCCC
- inhibition [1]: 5%

Compound: O=C(O)c1ccc2scnc2c1
- inhibition [2]: > 30%

Compound: O=C(CN1C(=O)S/C(=C/c2ccc(Cl)cc2)C1=O)Nc1cc([N+](=O)[O-])ccc1O
- inhibition [6]: 72%

Compound: CC[C@H](C)C[C@H](C)CCCCCCCCC(=O)N[C@H]1C[C@@H](O)[C@@H](OCCN)NC(=O)[C@@H]2[C@@H](O)CCN2C(=O)[C@H]([C@H](O)CCN)NC(=O)[C@H]([C@H](O)[C@@H](O)c2ccc(O)cc2)NC(=O)[C@@H]2C[C@@H](O)CN2C(=O)[C@H]([C@@H](C)O)NC1=O
- IC50 [4]: 0.001 µM

Compound: CC1=NN(c2ccc(Cl)c(C(=O)O)c2)C(=O)/C1=C\c1ccc(-c2ccccc2C(=O)O)o1
- inhibition [6]: 48%

Compound: O=C(O)CN1C(=O)/C(=C\c2cccc(OCc3ccccc3)c2)SC1=S
- inhibition [9]: 77%

Compound: COc1c(N/C=C2\C(=O)N(c3ccccc3C)N=C2C)cc([N+](=O)[O-])cc1[N+](=O)[O-]
- inhibition [6]: 66%

Compound: O=C(O)CN1C(=O)/C(=C\c2ccccc2O)SC1=S
- inhibition [9]: 77%

Compound: CCOC(=O)C(C(C)C)C(N)Cc1ccc(F)cc1 (configuration not stated)
- inhibition [2]: > 30%

Compound: NC[C@H]1O[C@@H](O[C@H](c2cn(CCCOc3ccc(C(=O)c4ccccc4)cc3)nn2)[C@H]2O[C@@H](n3ccc(=O)[nH]c3=O)[C@H](O)[C@@H]2O)[C@H](O)[C@@H]1O
- IC50 [8]: 100 µM

Compound: Cc1cc(/C=C2\C(=O)NC(=S)N(c3ccc(Cl)cc3)C2=O)c(C)n1-c1cc(C(=O)O)cc(C(=O)O)c1
- inhibition [6]: 88%

Compound: CCCCCCCCCCCCC/C=C/[C@@H](O)[C@@H](CN1CCCC1)NC(=O)CCCCCCCCCCCCCCC
- inhibition [1]: 87%

Compound: NS(=O)(=O)c1ccc(-c2ccc(/C=C3\C(=O)N(c4cccc(S(N)(=O)=O)c4)N=C3C(F)(F)F)o2)cc1
- inhibition [6]: 66%

Compound: COC1=C(O)c2c(O)cc(C)c3c(O)cc(O)c(c23)C1=O
- IC50 [3]: 54 µM

Compound: O=C(O)CN1C(=O)/C(=C\c2ccc(OCc3ccccc3)c(OCc3ccccc3)c2)SC1=S
- inhibition [9]: 80%

Compound: CCCCCCCCCCCCC/C=C/[C@H](O)[C@H](CN1CCOCC1)NC(=O)CCCCCCCCCCCCCCC
- inhibition [1]: 5%

Compound: O=C1N/C(=N/c2ccccc2)S/C1=C/c1cc(Br)cc(Cl)c1O
- inhibition [6]: 71%

Compound: C[C@H](CCCn1cc(CCCC(=O)O)nn1)[C@H]1CC[C@H]2[C@@H]3CC[C@@H]4C[C@H](O)CC[C@]4(C)[C@H]3CC[C@]12C
- IC50 [7]: 5 µM
- Ki [7]: 2.2 µM

Compound: CCOC(=O)c1ccccc1-c1c2cc(Br)c(=O)c(Br)c-2oc2c(Br)c(O)c(Br)cc12
- IC50 [3]: 18.4 µM

Compound: CCCCCCCC/C=C\CCCCCCCC(=O)OC
- inhibition [5]: 16.8%
